Measurements as given in patent publication US6806077B1 (priority 1997, dated 2004).
Where two headings read alike, the source gives them in different places.

Assays:
PrPres [1] = test system: PrPres; set-up: species or system C57BL/6 mice; conditions: mouse, in vivo, ip, 25 mg/kg
PrPres [2] = format: in vivo; conditions: C57BL/6 mice inoculated i.p. with strain C506M3; AmB 1 mg/kg from tA+15 days; sacrificed at tA+21 or tA+28; Western blot, versus untreated animals

Row | Compound | inhibition of the accumulation of PrPres in the spleen (PrPres [1]) | inhibition of the accumulation of PrPres in the spleen (PrPres [2])
1 | dextran sulphate [DS500] | significant inhibition of the accumulation of PrPres | 
2 | C[C@@H]1[C@H](O)[C@@H](C)/C=C/C=C/C=C/C=C/C=C/C=C/C=C/[C@H](O[C@@H]2O[C@H](C)[C@@H](O)[C@H](N)[C@@H]2O)C[C@@H]2O[C@](O)(C[C@@H](O)C[C@@H](O)[C@H](O)CC[C@@H](O)C[C@@H](O)CC(=O)O[C@H]1C)C[C@H](O)[C@H]2C(=O)O [AmB, amphotericin B] |  | significant inhibition of the accumulation of PrPres
